# Test results published in paper PMC10838953.
# What was measured:
# [1] = target: CK2α′ (Homo sapiens, UniProt P19784); conditions: 36 ng recombinant catalytic subunits
# [2] = target: KIT(V559D,T670I) (Homo sapiens, UniProt P10721, T670I/V559D); assay: biochemical; conditions: read-out: %Ctrl @ 2000nM
# [3] = test system: primary hepatocytes
# [4] = target: PIK3C2G (Homo sapiens, UniProt O75747); assay: biochemical; conditions: read-out: %Ctrl @ 2000nM
# [5] = target: MET(Y1235D) (Homo sapiens, UniProt P08581, Y1235D); assay: biochemical; conditions: read-out: %Ctrl @ 2000nM
# [6] = target: BRAF(V600E) (Homo sapiens, UniProt P15056, V600E); assay: biochemical; conditions: read-out: %Ctrl @ 2000nM
# [7] = test system: A375 cells; conditions: 4 μM, 48 h
# [8] = target: AKT1 (Homo sapiens, UniProt P31749); assay: biochemical; conditions: read-out: %Ctrl @ 2000nM
# [9] = target: PIK3CA(H1047L) (Homo sapiens, UniProt P42336, H1047L); assay: biochemical; conditions: read-out: %Ctrl @ 2000nM
# [10] = target: LIMK2 (Homo sapiens, UniProt P53671); assay: biochemical; conditions: read-out: %Ctrl @ 2000nM
# [11] = target: CAMK1D (Homo sapiens, UniProt Q8IU85); assay: biochemical; conditions: read-out: %Ctrl @ 2000nM
# Chain of CAMK1D (Q8IU85 whole entry): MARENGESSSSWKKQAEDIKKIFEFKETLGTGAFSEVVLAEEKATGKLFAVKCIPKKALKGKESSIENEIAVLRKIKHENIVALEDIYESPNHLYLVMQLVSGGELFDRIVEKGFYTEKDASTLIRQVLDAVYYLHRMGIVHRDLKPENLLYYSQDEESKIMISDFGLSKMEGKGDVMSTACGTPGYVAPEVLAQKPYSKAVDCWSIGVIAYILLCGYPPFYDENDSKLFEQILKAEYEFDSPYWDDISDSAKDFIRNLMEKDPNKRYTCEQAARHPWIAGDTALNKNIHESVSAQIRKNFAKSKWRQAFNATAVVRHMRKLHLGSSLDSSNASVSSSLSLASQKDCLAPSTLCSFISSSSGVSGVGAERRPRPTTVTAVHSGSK
# [12] = target: ERK4 (Homo sapiens, UniProt P31152); assay: biochemical; conditions: read-out: %Ctrl @ 2000nM
# [13] = target: EPHA8 (Homo sapiens, UniProt P29322); assay: biochemical; conditions: read-out: %Ctrl @ 2000nM
# [14] = target: CDKL2 (Homo sapiens, UniProt Q92772); assay: biochemical; conditions: read-out: %Ctrl @ 2000nM
# [15] = target: NEK10 (Homo sapiens, UniProt Q6ZWH5); assay: biochemical; conditions: read-out: %Ctrl @ 2000nM
# Chain of NEK10 (Q6ZWH5 whole entry): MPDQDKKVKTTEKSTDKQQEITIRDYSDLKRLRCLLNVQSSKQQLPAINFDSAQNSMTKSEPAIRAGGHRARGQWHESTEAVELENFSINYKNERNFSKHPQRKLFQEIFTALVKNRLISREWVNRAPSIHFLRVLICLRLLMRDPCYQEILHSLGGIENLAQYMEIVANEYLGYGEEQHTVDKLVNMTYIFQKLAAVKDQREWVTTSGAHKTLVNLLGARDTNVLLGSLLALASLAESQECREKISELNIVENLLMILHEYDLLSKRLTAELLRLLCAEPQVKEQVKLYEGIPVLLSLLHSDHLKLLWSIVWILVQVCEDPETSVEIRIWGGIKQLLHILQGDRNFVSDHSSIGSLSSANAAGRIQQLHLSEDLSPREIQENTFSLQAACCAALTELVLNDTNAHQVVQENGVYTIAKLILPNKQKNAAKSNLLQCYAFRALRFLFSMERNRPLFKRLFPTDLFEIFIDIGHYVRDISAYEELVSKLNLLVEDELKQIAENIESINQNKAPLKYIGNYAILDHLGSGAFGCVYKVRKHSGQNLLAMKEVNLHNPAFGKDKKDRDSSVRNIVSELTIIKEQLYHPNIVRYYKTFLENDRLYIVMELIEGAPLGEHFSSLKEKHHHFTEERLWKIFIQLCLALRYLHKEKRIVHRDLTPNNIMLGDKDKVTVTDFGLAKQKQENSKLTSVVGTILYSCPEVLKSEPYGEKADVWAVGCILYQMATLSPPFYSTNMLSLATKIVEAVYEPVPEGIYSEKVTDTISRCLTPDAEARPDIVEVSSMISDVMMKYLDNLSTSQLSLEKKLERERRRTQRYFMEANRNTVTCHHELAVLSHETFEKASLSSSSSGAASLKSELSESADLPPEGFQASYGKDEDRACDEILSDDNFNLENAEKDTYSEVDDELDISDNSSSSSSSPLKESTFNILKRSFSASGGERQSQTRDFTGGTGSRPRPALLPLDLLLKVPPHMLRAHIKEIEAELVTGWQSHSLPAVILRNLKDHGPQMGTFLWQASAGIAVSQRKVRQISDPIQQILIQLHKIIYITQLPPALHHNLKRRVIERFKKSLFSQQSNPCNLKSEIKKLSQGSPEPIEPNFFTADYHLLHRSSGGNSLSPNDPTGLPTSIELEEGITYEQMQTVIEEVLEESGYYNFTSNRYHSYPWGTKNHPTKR
# [16] = target: PIP5K2B (Homo sapiens, UniProt P78356); assay: biochemical; conditions: read-out: %Ctrl @ 2000nM
# [17] = target: BRSK2 (Homo sapiens, UniProt Q8IWQ3); assay: biochemical; conditions: read-out: %Ctrl @ 2000nM
# [18] = target: MAP4K2 (Homo sapiens, UniProt Q12851); assay: biochemical; conditions: read-out: %Ctrl @ 2000nM
# [19] = target: KIT(A829P) (Homo sapiens, UniProt P10721, A829P); assay: biochemical; conditions: read-out: %Ctrl @ 2000nM
# [20] = target: MET (Homo sapiens, UniProt P08581); assay: biochemical; conditions: read-out: %Ctrl @ 2000nM
# [21] = target: WNK2 (Homo sapiens, UniProt Q9Y3S1); assay: biochemical; conditions: read-out: %Ctrl @ 2000nM
# [22] = target: MUSK (Homo sapiens, UniProt O15146); assay: biochemical; conditions: read-out: %Ctrl @ 2000nM
# Chain of MUSK (O15146 24-869): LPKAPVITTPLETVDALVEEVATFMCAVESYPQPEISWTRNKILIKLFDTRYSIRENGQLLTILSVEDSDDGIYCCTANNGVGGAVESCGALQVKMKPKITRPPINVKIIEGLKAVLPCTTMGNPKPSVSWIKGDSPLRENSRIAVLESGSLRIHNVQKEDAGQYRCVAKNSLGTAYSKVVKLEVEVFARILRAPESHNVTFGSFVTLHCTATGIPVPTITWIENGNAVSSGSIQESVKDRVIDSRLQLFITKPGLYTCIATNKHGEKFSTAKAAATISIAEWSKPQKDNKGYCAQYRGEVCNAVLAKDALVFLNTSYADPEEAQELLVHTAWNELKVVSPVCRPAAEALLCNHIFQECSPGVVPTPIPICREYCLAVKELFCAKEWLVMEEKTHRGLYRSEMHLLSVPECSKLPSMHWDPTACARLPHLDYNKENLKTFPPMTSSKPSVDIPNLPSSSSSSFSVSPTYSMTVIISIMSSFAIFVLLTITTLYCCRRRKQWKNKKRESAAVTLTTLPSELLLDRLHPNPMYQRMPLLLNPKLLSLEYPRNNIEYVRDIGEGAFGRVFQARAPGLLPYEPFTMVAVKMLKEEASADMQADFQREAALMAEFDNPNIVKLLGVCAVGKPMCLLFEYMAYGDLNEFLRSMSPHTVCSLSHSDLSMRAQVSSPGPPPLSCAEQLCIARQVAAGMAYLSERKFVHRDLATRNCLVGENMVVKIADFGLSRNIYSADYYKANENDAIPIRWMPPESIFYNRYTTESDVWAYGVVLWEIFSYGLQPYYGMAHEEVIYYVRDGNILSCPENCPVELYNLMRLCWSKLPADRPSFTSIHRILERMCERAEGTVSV
# [23] = target: GCN2(Kin.Dom.2,S808G) (Homo sapiens, UniProt Q9P2K8, S808G); assay: biochemical; conditions: read-out: %Ctrl @ 2000nM
# [24] = target: TXK (Homo sapiens, UniProt P42681); assay: biochemical; conditions: read-out: %Ctrl @ 2000nM
# [25] = target: PLK3 (Homo sapiens, UniProt Q9H4B4); assay: biochemical; conditions: read-out: %Ctrl @ 2000nM
# [26] = target: RIPK5 (Homo sapiens, UniProt Q6XUX3); assay: biochemical; conditions: read-out: %Ctrl @ 2000nM
# Chain of RIPK5 (Q6XUX3 whole entry): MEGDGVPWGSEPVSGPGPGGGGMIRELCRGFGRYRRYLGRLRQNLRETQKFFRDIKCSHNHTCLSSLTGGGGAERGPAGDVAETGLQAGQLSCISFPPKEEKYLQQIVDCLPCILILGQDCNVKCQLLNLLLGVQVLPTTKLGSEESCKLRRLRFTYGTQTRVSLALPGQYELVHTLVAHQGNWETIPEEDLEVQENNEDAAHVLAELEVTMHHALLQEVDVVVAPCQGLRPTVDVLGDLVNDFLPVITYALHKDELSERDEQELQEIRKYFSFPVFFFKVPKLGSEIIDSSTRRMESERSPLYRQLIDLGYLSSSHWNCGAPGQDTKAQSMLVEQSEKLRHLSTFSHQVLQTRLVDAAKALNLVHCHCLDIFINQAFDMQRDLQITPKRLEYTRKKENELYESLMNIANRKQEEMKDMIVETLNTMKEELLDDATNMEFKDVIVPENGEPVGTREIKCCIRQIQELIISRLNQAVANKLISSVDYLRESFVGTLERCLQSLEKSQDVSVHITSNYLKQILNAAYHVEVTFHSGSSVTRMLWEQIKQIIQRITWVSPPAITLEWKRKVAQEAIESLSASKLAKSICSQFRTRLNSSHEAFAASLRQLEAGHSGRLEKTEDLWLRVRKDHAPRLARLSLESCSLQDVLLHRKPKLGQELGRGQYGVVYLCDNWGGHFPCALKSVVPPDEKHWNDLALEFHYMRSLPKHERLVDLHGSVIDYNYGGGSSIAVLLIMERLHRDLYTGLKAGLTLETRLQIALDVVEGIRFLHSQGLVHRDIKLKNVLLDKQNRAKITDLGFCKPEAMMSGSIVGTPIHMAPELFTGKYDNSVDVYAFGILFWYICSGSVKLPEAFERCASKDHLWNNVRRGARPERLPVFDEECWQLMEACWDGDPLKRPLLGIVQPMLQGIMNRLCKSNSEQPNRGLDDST
# [27] = target: BLK (Homo sapiens, UniProt P51451); assay: biochemical; conditions: read-out: %Ctrl @ 2000nM
# [28] = test system: tumor slices of clear cell renal carcinoma (786-O-luc xenograft); conditions: 10 μM CX-4945, 5 μM AB668
# [29] = target: ERBB2 (Homo sapiens, UniProt P04626); assay: biochemical; conditions: read-out: %Ctrl @ 2000nM
# [30] = test system: 468 kinases
# [31] = target: BMPR1B (Homo sapiens, UniProt O00238); assay: biochemical; conditions: read-out: %Ctrl @ 2000nM
# [32] = target: PKMYT1 (Homo sapiens, UniProt Q99640); assay: biochemical; conditions: read-out: %Ctrl @ 2000nM
# [33] = target: ABL1-phosphorylated (Homo sapiens, UniProt P00519); assay: biochemical; conditions: read-out: %Ctrl @ 2000nM
# [34] = target: MYO3A (Homo sapiens, UniProt Q8NEV4); assay: biochemical; conditions: read-out: %Ctrl @ 2000nM
# [35] = target: PRKCI (Homo sapiens, UniProt P41743); assay: biochemical; conditions: read-out: %Ctrl @ 2000nM
# Chain of PRKCI (P41743 whole entry): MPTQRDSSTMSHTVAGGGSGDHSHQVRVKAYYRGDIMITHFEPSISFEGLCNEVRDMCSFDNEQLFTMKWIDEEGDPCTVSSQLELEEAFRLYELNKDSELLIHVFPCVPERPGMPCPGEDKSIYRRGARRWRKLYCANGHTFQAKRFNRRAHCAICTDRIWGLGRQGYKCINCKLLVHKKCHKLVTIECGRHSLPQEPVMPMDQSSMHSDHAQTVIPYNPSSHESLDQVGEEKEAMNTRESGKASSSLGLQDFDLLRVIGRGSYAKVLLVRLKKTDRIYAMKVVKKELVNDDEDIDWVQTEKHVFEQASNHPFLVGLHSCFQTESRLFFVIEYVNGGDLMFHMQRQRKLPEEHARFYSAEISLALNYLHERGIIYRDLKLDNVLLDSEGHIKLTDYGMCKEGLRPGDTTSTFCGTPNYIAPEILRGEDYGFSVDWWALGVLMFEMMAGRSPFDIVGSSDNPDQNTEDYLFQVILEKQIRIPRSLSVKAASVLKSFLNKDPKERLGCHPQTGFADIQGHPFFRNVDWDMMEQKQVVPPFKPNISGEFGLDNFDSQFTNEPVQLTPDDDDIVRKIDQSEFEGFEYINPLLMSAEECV
# [36] = target: BMX (Homo sapiens, UniProt P51813); assay: biochemical; conditions: read-out: %Ctrl @ 2000nM
# [37] = target: LCK (Homo sapiens, UniProt P06239); assay: biochemical; conditions: read-out: %Ctrl @ 2000nM
# [38] = target: CSNK1A1L (Homo sapiens, UniProt Q8N752); assay: biochemical; conditions: read-out: %Ctrl @ 2000nM
# [39] = target: EGFR(S752-I759del) (Homo sapiens, UniProt P00533, DEL752-759); assay: biochemical; conditions: read-out: %Ctrl @ 2000nM
# [40] = target: NEK1 (Homo sapiens, UniProt Q96PY6); assay: biochemical; conditions: read-out: %Ctrl @ 2000nM
# [41] = target: CAMK4 (Homo sapiens, UniProt Q16566); assay: biochemical; conditions: read-out: %Ctrl @ 2000nM
# [42] = target: BIKE (Homo sapiens, UniProt Q9NSY1); assay: biochemical; conditions: read-out: %Ctrl @ 2000nM
# Chain of BIKE (Q9NSY1 whole entry): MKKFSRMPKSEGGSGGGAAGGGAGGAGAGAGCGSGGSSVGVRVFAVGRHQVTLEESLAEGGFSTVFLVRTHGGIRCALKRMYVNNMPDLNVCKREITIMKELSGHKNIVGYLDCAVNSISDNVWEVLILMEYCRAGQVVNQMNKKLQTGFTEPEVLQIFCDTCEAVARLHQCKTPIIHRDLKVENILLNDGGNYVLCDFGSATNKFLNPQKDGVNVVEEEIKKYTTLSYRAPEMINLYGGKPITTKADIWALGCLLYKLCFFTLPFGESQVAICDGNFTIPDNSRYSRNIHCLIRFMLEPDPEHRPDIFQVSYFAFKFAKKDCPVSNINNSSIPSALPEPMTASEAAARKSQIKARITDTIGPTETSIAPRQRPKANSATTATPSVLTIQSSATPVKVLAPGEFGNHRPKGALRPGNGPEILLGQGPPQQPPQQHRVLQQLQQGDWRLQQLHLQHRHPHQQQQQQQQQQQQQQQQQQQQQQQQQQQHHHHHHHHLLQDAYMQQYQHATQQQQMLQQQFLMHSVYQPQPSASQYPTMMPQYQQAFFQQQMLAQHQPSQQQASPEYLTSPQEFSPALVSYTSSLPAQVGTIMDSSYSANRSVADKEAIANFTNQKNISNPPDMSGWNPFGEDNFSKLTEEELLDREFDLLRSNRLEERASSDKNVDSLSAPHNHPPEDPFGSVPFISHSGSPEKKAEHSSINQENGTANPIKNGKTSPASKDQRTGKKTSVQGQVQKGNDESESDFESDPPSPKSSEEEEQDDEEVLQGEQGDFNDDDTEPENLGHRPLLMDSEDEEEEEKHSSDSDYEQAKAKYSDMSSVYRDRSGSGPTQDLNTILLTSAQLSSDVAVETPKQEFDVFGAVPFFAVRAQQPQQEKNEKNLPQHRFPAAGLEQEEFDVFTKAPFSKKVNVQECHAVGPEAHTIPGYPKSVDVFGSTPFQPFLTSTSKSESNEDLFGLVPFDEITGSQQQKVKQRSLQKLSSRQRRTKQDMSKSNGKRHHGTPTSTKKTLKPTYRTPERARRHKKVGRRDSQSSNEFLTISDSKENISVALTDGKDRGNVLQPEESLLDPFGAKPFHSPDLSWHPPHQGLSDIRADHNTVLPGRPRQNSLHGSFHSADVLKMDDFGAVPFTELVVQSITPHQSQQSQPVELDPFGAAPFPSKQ
structure (smiles),measurement,setting,value
"CC(C)COC(=O)c1[nH]c2ccc(F)cc2c1-c1cn(CC2CCN(CCNS(=O)(=O)c3ccc(CC(C)C)cc3)CC2)nn1 [AB668, isobutyl 5-fluoro-3-(1-((1-(2-((4-isobutylphenyl)sulfonamido)ethyl)piperidin-4-yl)methyl)-1H-1,2,3-triazol-4-yl)-1H-indole-2-carboxylate]",efficacy on the catalytic activity of CK2α and CK2α′,[1],very similar efficacy
same,remaining activity at 2 µM,[2],93%
same,cytotoxicity,[3],no cytotoxicity
same,remaining activity at 2 µM,[4],100%
same,remaining activity at 2 µM,[5],74%
same,remaining activity at 2 µM,[6],100%
same,"proliferation, cell death and apoptosis",[7],induced significant cell proliferation arrest associated with cell death and apoptosis
same,remaining activity at 2 µM,[8],88%
same,remaining activity at 2 µM,[9],98%
same,remaining activity at 2 µM,[10],84%
same,remaining activity at 2 µM,[11],96%
same,remaining activity at 2 µM,[12],84%
same,remaining activity at 2 µM,[13],92%
same,remaining activity at 2 µM,[14],84%
same,remaining activity at 2 µM,[15],80%
same,remaining activity at 2 µM,[16],100%
same,remaining activity at 2 µM,[17],79%
same,remaining activity at 2 µM,[18],100%
same,remaining activity at 2 µM,[19],78%
same,remaining activity at 2 µM,[20],100%
same,remaining activity at 2 µM,[21],87%
same,remaining activity at 2 µM,[22],92%
same,remaining activity at 2 µM,[23],80%
same,remaining activity at 2 µM,[24],92%
same,remaining activity at 2 µM,[25],93%
same,remaining activity at 2 µM,[26],95%
same,remaining activity at 2 µM,[27],100%
same,cell viability of tumor slices,[28],significantly reduced cell viability
same,remaining activity at 2 µM,[29],100%
same,Number of Hits S(1),[30],2
same,Number of Hits S(10),[30],3
same,Number of Hits S(35),[30],4
same,remaining activity at 2 µM,[31],100%
same,remaining activity at 2 µM,[32],70%
same,remaining activity at 2 µM,[33],82%
same,remaining activity at 2 µM,[34],96%
same,remaining activity at 2 µM,[35],85%
same,remaining activity at 2 µM,[36],85%
same,remaining activity at 2 µM,[37],99%
same,remaining activity at 2 µM,[38],86%
same,remaining activity at 2 µM,[39],80%
same,remaining activity at 2 µM,[40],73%
same,remaining activity at 2 µM,[41],100%
same,remaining activity at 2 µM,[42],99%
